Test [1] has as its system gastric cancer cell line Hs746T. As to the kind of experiment: Cancer cell proliferation inhibitory test (SRB or MTS assay, 72 hours). The test is classed as cell-based. The note with it: Homo sapiens, cancer cell (Hs746T) proliferation inhibition, culturing with compound for 72 hours. The protocol:
The drug used in the test was diluted to a desired concentration as a test medium, and the final concentration of dimethyl sulfoxide was 0.5% or less.
All the cancer cell lines used in the test originated from the human body, and gastric cancer cell lines Hs746T and MKN-45 were used.
5×10^3 cells of Hs746T were dispensed to each well of the 96-well flat bottom micro-plate. MKN-45 was dispensed at 1×10^4 cells. The cells were cultured for 24 hours, so that the cells adhered to the bottom, and then the culture liquid was removed. The culture liquid containing each of the compounds of the present invention was added, followed by culturing for 72 hours. After the culturing with the compound was completed, the cytotoxicity was measured using protein stain reagent SRB or MTS assay.
Specifically, after the culturing with the compound of the present invention was completed, the cultured liquid was removed. Each well was treated with a cool TCA solution, and allowed to stand at 4° C. for 1 hour to fix cells. The TCA solution was removed, followed by drying at room temperature, and then a stain solution containing 0.4% SRB dissolved in 1% acetic acid solution was added, and then the mixture was allowed to stand for 30 minutes to stain cells. […] The absorbance of each well was measured at a wavelength range of 520 nm using an Eliza reader (micro-plate reader).
The drug cytotoxicity was measured from the OD values for the well added without the drug (C), each well added with the drug (T), and the well initially added with the drug (Tz): [(T−Tz)/(C−Tz)]×100 for […]; or [(T−Tz)/(Tz)]×100 for Tz>T.
The cancer cell inhibitory activity measurement using MTS assay was conducted as follows. Specifically, after the culturing with the compound of the present invention was completed, the PMS solution and MTS solution constituting the CellTiter 96® AQueous Non-Radioactive Cell Proliferation Assay product from Promega Co. were mixed, and 20 μL was put into each well. After the cells were placed in an incubator for 4 hours, and then taken out and allowed to stand at room temperature for 10 minutes.

Test [2] has as its target c-Met enzyme (Homo sapiens (Human), UniProt P08581). Put plainly: c-Met kinase inhibitory activity (DELFIA time-resolved fluorescence). The test is classed as biochemical. To be noted: c-Met kinase activity reduced to 50%. Here is the method: The c-Met kinase inhibitory activity was analyzed using dissociation enhanced lanthanide fluoro-immunoassay (DELFIA, Perkin Elmer), which is a kind of time-resolved fluorescence (TRF). […] of the compound prepared in the present invention, as a test compound, was put in a Greiner 96-well V-shaped bottom plate, and a tyrosin kinase buffer ([…]) mixed with a c-Met enzyme was added thereto, and then the enzyme and the test compound were stirred for 15 minutes, followed by culturing. An ATP solution ([…]) was added thereto to proceed with a kinase reaction at room temperature for 30 minutes, and then a 50 mM […] solution (EDTA, […]) was added to stop the reaction. After that, the reaction mixture was transferred to a plate coated with Streptavidin, followed by culturing under shaking. After 2 hours, the cultured material was washed three times with a PBS-T buffer (PBS 0.05% Tween 20).
The europium-labeled anti-phosphotyrosine antibody was diluted to 1:[…] of the diluent was added per well, followed by culturing under shaking. After 1 hour, the cultured material was washed three times with a PBS-T buffer (PBS 0.05% Tween 20).

Counter-ions that a name gives are not always drawn.

Chain of c-Met enzyme (P08581 25-1390): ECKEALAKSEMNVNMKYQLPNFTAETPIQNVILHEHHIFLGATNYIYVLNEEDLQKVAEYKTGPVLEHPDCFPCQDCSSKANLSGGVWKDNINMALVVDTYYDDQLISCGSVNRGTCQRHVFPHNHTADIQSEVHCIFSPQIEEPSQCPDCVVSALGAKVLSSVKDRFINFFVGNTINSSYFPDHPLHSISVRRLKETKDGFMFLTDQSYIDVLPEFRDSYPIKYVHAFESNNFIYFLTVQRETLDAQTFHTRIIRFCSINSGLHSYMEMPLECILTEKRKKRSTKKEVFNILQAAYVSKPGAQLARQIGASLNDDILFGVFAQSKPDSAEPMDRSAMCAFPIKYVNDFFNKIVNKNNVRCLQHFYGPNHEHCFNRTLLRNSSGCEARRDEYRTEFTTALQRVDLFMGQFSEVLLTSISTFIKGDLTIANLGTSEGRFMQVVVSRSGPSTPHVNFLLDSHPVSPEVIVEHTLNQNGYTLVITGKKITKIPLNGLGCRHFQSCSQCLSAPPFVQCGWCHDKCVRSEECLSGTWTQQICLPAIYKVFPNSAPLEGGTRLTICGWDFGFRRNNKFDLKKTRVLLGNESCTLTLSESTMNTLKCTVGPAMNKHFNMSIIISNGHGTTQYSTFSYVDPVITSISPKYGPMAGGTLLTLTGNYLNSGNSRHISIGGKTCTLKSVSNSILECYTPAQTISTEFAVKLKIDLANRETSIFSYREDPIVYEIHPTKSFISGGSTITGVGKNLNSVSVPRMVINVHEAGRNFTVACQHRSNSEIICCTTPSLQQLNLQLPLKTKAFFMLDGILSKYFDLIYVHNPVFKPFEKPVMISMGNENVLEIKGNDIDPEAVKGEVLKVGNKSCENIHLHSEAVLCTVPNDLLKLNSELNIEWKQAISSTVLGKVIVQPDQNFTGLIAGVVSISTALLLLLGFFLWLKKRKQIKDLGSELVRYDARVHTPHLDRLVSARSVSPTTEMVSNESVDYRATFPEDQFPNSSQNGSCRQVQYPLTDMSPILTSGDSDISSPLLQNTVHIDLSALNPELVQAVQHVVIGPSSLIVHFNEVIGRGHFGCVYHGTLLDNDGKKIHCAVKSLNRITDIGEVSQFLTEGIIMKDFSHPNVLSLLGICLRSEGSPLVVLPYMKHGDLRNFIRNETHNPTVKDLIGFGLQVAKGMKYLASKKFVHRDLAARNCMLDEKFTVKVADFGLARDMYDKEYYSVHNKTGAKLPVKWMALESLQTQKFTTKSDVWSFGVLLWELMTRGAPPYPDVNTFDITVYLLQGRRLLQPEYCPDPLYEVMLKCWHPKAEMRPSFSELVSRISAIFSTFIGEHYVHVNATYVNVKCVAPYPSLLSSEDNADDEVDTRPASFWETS

Regarding `Cn1cc(-c2cnc3nnn(C[C@@H]4CN(c5ncc(-c6ccc(OCCN7CCOCC7)cc6)cn5)CCO4)c3n2)cn1` [Chemical formula 14, (S)-2-((6-(1-methyl-1H-pyrazol-4-yl)-1H-[1,2,3]triazolo[4,5-b]pyrazin-1-yl)methyl)-4-(5-(4-(2-morpholinoethoxy)phenyl)pyrimidin-2-yl)morpholine], the IC50 was determined as 4.1 nM in test [1] and 14 nM in test [2].
In the same order, the values of `Cn1cc(-c2cnc3nnn(C[C@@H]4CN(c5ncc(-c6ccc(CN7CCOCC7)cc6)cn5)CCO4)c3n2)cn1` [Chemical formula 18, (S)-2-((6-(1-methyl-1H-pyrazol-4-yl)-1H-[1,2,3]triazolo[4,5-b]pyrazin-1-yl)methyl)-4-(5-(4-(morpholinomethyl)phenyl)pyrimidin-2-yl)morpholine] are 9.6 nM and 5 nM.
For the compound `Cn1cc(-c2cnc3nnn(C[C@@H]4CN(c5ncc(C6CCN(CCO)CC6)cn5)CCO4)c3n2)cn1` [Chemical formula 21, (S)-2-(4-(2-(2-((6-(1-methyl-1H-pyrazol-4-yl)-1H-[1,2,3]triazolo[4,5-b]pyrazin-1-yl)methyl)morpholino)pyrimidin-5-yl)piperidin-1-yl)ethanol], the values for the IC50 in test [1] and in test [2] were 5.6 nM and 5 nM, respectively.
For the compound `N#Cc1cc(-c2cnc3nnn(C[C@@H]4CN(c5ncc(C6=CCNCC6)cn5)CCO4)c3n2)ccc1F` [Chemical formula 30, (S)-2-fluoro-5-(1-((4-(5-(1,2,3,6-tetrahydropyridin-4-yl)pyrimidin-2-yl)morpholine-2-yl)methyl)-1H-[1,2,3]triazolo[4,5-b]pyrazin-6-yl)benzonitrile], the IC50 in test [1] is 0.11 nM; in test [2], 2 nM.
On to `N#Cc1cccc(-c2cnc3nnn(C[C@@H]4CN(c5ncc(-c6cnn(CCO)c6)cn5)CCO4)c3n2)c1` [Chemical formula 31, (S)-3-(1-((4-(5-(1-(2-hydroxyethyl)-1H-pyrazol-4-yl)pyrimidin-2-yl)morpholin-2-yl)methyl)-1H-[1,2,3]triazolo[4,5-b]pyrazin-6-yl)benzonitrile], for which the values for the IC50 in test [1] and in test [2] were 0.18 nM and 2 nM, respectively.
In the same order, the values of `N#Cc1cc(-c2cnc3nnn(C[C@@H]4CN(c5ncc(-c6cnn(CCO)c6)cn5)CCO4)c3n2)ccc1F` [Chemical formula 32, (S)-2-fluoro-5-(1-((4-(5-(1-(2-hydroxyethyl)-1H-pyrazol-4-yl)pyrimidin-2-yl)morpholine-2-yl)methyl)-1H-[1,2,3]triazolo[4,5-b]pyrazin-6-yl)benzonitrile] are 0.14 nM and 1 nM.
With `Cn1cc(-c2cnc3nnn(CC4CCCN(c5ncc(C6=CCNCC6)cn5)C4)c3n2)cn1` (stereo not shown) [Chemical formula 33, 6-(1-methyl-1H-pyrazol-4-yl)-1-((1-(5-(1,2,3,6-tetrahydropyridin-4-yl)pyrimidin-2-yl)piperidin-3-yl)methyl)-1H-[1,2,3]triazolo[4,5-b]pyrazinehydrochloride], the IC50 in test [1] came to 9.5 nM; in test [2] it was 3 nM.
Take `CN1CC=C(c2cnc(N3CCCC(Cn4nnc5ncc(-c6cnn(C)c6)nc54)C3)nc2)CC1` (stereo not shown) [Chemical formula 34, 1-((1-(5-(1-methyl-1,2,3,6-tetrahydropyridin-4-yl)pyrimidin-2-yl)piperidin-3-yl)methyl)-6-(1-methyl-1H-pyrazol-4-yl)-1H-[1,2,3]triazolo[4,5-b]pyrazine]: the IC50 was 15 nM in test [1] and 3 nM in test [2].
Regarding `Cn1cc(-c2cnc3nnn(CC4CCCN(c5ncc(C6=CCN(CCO)CC6)cn5)C4)c3n2)cn1` (stereo not shown) [Chemical formula 35, 2-(4-(2-(3-((6-(1-methyl-1H-pyrazol-4-yl)-1H-[1,2,3]triazolo[4,5-b]pyrazine-1-yl)methyl)piperidin-1-yl)pyrimidin-5-yl)-5,6-dihydropyridin-1(2H)-yl)ethanol], the IC50 amounted to 2 nM in test [1] and 3 nM in test [2].
Consider `Cn1cc(-c2cnc3nnn(CC4CCCN(c5ncc(-c6cnn(CCO)c6)cn5)C4)c3n2)cn1` (stereo not shown) [Chemical formula 36, 2-(3-(2-(3-((6-(1-methyl-1H-pyrazol-4-yl)-1H-[1,2,3]triazolo[4,5-b]pyrazin-1-yl)methyl)piperidin-1-yl)pyrimidin-5-yl)-1H-pyrazol-1-yl)ethanolhydrochloride], for which the concentration for half-maximal inhibition (IC50) in test [1] worked out at 3.8 nM; in test [2], 2 nM.
Taken in the same sequence, the figures for `Cn1cc(-c2cnc3nnn(CC4CCCN(c5ncc(-c6cnn(C7CCNCC7)c6)cn5)C4)c3n2)cn1` (stereo not shown) [Chemical formula 37, 6-(1-methyl-1H-pyrazol-4-yl)-1-((1-(5-(1-(piperidin-4-yl)-1H-pyrazol-3-yl)pyrimidin-2-yl)piperidin-3-yl)methyl)-1H-[1,2,3]triazolo[4,5-b]pyrazinehydrochloride] were 1.3 nM and 2 nM.

By IC50 is commonly meant the concentration that gives 50% inhibition.

For the origin of these results see US9403831B2, “Triazolopyrazine derivative and use thereof” (KOREA RESEARCH INSTITUTE OF CHEMICAL TECHNOLOGY, priority 2013, dated 2016).
